Data published in US20180193412A1, “Method of In Vivo Treatment” (Hexima Limited, priority 2015, published 2018).

Tests used:
T. rubrum = assay: Inhibition of growth of Trichophyton rubrum by plant defensins (microtitre A595 antifungal assay); assay type: cell-based; conditions: ½ strength PDB, 30° C.
Description: (§1) The inhibitory effects of the plant defensins on the growth of Trichophyton rubrum, T. interdigitale, Microsporum fulvum and C. albicans (all obtained from the National Mycology Reference Centre, South Australia Pathology at the Women's and Children's Hospital, Adelaide, Australia) are measured essentially as described by Broekaert et al. (1990) FEMS Microbiol Lett 69:55-59.
(§2) Spores of T. rubrum, T. interdigitale and M. fulvum are isolated from sporulating fungus growing on ½ strength Sabouraud dextrose agar. Spores were removed from the plates by the addition of ½ strength potato dextrose broth (PDB). C. albicans cells are grown in Yeast Peptone Broth (YPD) for 16 h. Spore and cell concentrations are measured using a hemocytometer.
(§3) Antifungal assays are conducted in 96 well microtitre plates essentially as herein described. Wells are loaded with 20 μL of filter sterilized (0.22 Ξ m syringe filter, Millipore) defensin (10× stock for each final concentration) or water and 80 μL of 5×10^4 spores/mL (T. rubrum, T. interdigitale, M. fulvum) or 5,000 cells/mL (C. albicans) in ½ strength PDB. The plates are incubated at 30° C. Fungal growth is assayed by measuring optical density at 595 nm (A595) using a microtitre plate reader (SpectraMax Pro M2; Molecular Devices. Growth is allowed to proceed until the optical density (OD) of the fungus in the absence of any test defensin reached an OD of 0.2. Each test is performed in duplicate.

M. fulvum = assay: Inhibition of growth of Microsporum fulvum by plant defensins (microtitre A595 antifungal assay); assay type: cell-based; conditions: for IC50 against M. fulvum: ½ strength PDB, 30° C., A595
Description: as §1, §2, §3

T. interdigitale = assay: Inhibition of growth of T. interdigitale by plant defensins (microtitre A595 antifungal assay); assay type: cell-based, Trichophyton interdigitale; conditions: ½ strength PDB, 30° C.
Description: as §1, §2, §3

C. albicans = assay: Inhibition of growth of Candida albicans, Example 2 antifungal assay; assay type: cell-based; conditions: Table 4; ½ strength PDB, 30° C., A595
Description: (§4) The inhibitory effects of the plant defensins on the growth of Candida albicans, Aspergillus fumigatus (obtained from the National Mycology Reference Centre, South Australia Pathology at the Women's and Children's Hospital, Adelaide, Australia), C. glabrata, C. tropicalis, A. flavus, A. niger, A. fumigants, Cryptococcus neoformans and C. gattii (obtained from Dee Carter, University of Sydney, New South Wales, Australia) are measured essentially as described by Broekaert et al. (1990) FEMS Microbiol Lett 69:55-59.
as §2, with “A. flavus. A. niger” for “T. rubrum, T. interdigitale”, “A. fumigatus” for “M. fulvum”, “albicans, C. glabrata, C. tropicalis, C. neoformans and C. gattii” for “albicans”
as §3, with “μm” for “Ξ m”, “(A. flavus, A. niger, A. fumigatus),” for “(T. rubrum, T. interdigitale, M. fulvum) or”, “albicans, C. glabrata, C. tropicalis) or 1×10^6 cells/mL (C. neoformans, C. gattii)” for “albicans)”

[1] = test system: Trichophyton rubrum, T. interdigitale, Microsporum fulvum and C. albicans; assay: Inhibition assays of Example 1, summary across the range of fungal pathogens; assay type: cell-based; conditions: summary of Table 3, at the concentrations tested
Description: as §1, §2, §3

T. albicans = assay: Inhibition of growth of C. albicans by plant defensins, Example 1 (microtitre A595 antifungal assay); assay type: cell-based; conditions: for IC50 against T. albicans: Table 3, ½ strength PDB, 30° C., A595
Description: as §1, §2, §3

C. glabrata = assay: Inhibition of growth of C. glabrata, Example 2 antifungal assay; assay type: cell-based; conditions: ½ strength PDB, 30° C., A595
Description: as §4
as §2, with “A. flavus. A. niger” for “T. rubrum, T. interdigitale”, “A. fumigatus” for “M. fulvum”, “albicans, C. glabrata, C. tropicalis, C. neoformans and C. gattii” for “albicans”
as §3, with “μm” for “Ξ m”, “(A. flavus, A. niger, A. fumigatus),” for “(T. rubrum, T. interdigitale, M. fulvum) or”, “albicans, C. glabrata, C. tropicalis) or 1×10^6 cells/mL (C. neoformans, C. gattii)” for “albicans)”

C. tropicalis = assay: Inhibition of growth of C. tropicalis, Example 2 antifungal assay; assay type: cell-based; conditions: ½ strength PDB, 30° C., A595
Description: as §4
as §2, with “A. flavus. A. niger” for “T. rubrum, T. interdigitale”, “A. fumigatus” for “M. fulvum”, “albicans, C. glabrata, C. tropicalis, C. neoformans and C. gattii” for “albicans”
as §3, with “μm” for “Ξ m”, “(A. flavus, A. niger, A. fumigatus),” for “(T. rubrum, T. interdigitale, M. fulvum) or”, “albicans, C. glabrata, C. tropicalis) or 1×10^6 cells/mL (C. neoformans, C. gattii)” for “albicans)”

A. niger = assay: Inhibition of growth of A. niger, Example 2 antifungal assay; assay type: cell-based; conditions: ½ strength PDB, 30° C., A595
Description: as §4
as §2, with “A. flavus. A. niger” for “T. rubrum, T. interdigitale”, “A. fumigatus” for “M. fulvum”, “albicans, C. glabrata, C. tropicalis, C. neoformans and C. gattii” for “albicans”
as §3, with “μm” for “Ξ m”, “(A. flavus, A. niger, A. fumigatus),” for “(T. rubrum, T. interdigitale, M. fulvum) or”, “albicans, C. glabrata, C. tropicalis) or 1×10^6 cells/mL (C. neoformans, C. gattii)” for “albicans)”

A. fumigatus = assay: Inhibition of growth of Aspergillus fumigatus, Example 2 antifungal assay; assay type: cell-based; conditions: ½ strength PDB, 30° C., A595
Description: as §4
as §2, with “A. flavus. A. niger” for “T. rubrum, T. interdigitale”, “A. fumigatus” for “M. fulvum”, “albicans, C. glabrata, C. tropicalis, C. neoformans and C. gattii” for “albicans”
as §3, with “μm” for “Ξ m”, “(A. flavus, A. niger, A. fumigatus),” for “(T. rubrum, T. interdigitale, M. fulvum) or”, “albicans, C. glabrata, C. tropicalis) or 1×10^6 cells/mL (C. neoformans, C. gattii)” for “albicans)”

C. neoformans = assay: Inhibition of growth of Cryptococcus neoformans, Example 2 antifungal assay; assay type: cell-based; conditions: ½ strength PDB, 30° C., A595
Description: as §4
as §2, with “A. flavus. A. niger” for “T. rubrum, T. interdigitale”, “A. fumigatus” for “M. fulvum”, “albicans, C. glabrata, C. tropicalis, C. neoformans and C. gattii” for “albicans”
as §3, with “μm” for “Ξ m”, “(A. flavus, A. niger, A. fumigatus),” for “(T. rubrum, T. interdigitale, M. fulvum) or”, “albicans, C. glabrata, C. tropicalis) or 1×10^6 cells/mL (C. neoformans, C. gattii)” for “albicans)”

C. gattii = assay: Inhibition of growth of C. gattii, Example 2 antifungal assay; assay type: cell-based; conditions: ½ strength PDB, 30° C., A595
Description: as §4
as §2, with “A. flavus. A. niger” for “T. rubrum, T. interdigitale”, “A. fumigatus” for “M. fulvum”, “albicans, C. glabrata, C. tropicalis, C. neoformans and C. gattii” for “albicans”
as §3, with “μm” for “Ξ m”, “(A. flavus, A. niger, A. fumigatus),” for “(T. rubrum, T. interdigitale, M. fulvum) or”, “albicans, C. glabrata, C. tropicalis) or 1×10^6 cells/mL (C. neoformans, C. gattii)” for “albicans)”

E. coli = assay type: cell-based, Escherichia coli; conditions: for IC50: Mueller-Hinton Broth, 37° C., 18 hours, up to 20 μM, read-out: IC50 against E. coli; for Inhibition of growth of E. coli: at the concentrations tested (0.3125-20 μM)
Description: (§5) A single E. coli or B. subtilis colony was used to inoculate 5 ml of Luria-Bertani media and grown overnight at 37° C. The following day, the optical density of the culture was measured and the bacteria diluted to an optical density at 600 nm (OD600) of 0.01 in Mueller-Hinton Broth. Diluted E. coli or B. subtilis were added to 96-well plates with defensins at concentrations of 20 μM, 10 μM, 5 μM, 2.5 μM, 1.25 μM, 0.625 μM or 0.3125 μM. Plates were read at OD595 to obtain time zero data points. Plates were incubated at 37° C. for 18 hours before reading again at OD595 to assess the amount of bacterial growth.

B. subtilis = assay: Inhibition of the growth of Bacillus subtilis (OD595, 18 hours); assay type: cell-based; conditions: for IC50: Mueller-Hinton Broth, 37° C., 18 hours, up to 20 μM, read-out: IC50 against B. subtilis; for Inhibition of growth of B. subtilis: at the concentrations tested (0.3125-20 μM)
Description: as §5

A. flavus = assay: Inhibition of growth of A. flavus, Example 2 antifungal assay; assay type: cell-based; conditions: ½ strength PDB, 30° C., A595
Description: as §4
as §2, with “A. flavus. A. niger” for “T. rubrum, T. interdigitale”, “A. fumigatus” for “M. fulvum”, “albicans, C. glabrata, C. tropicalis, C. neoformans and C. gattii” for “albicans”
as §3, with “μm” for “Ξ m”, “(A. flavus, A. niger, A. fumigatus),” for “(T. rubrum, T. interdigitale, M. fulvum) or”, “albicans, C. glabrata, C. tropicalis) or 1×10^6 cells/mL (C. neoformans, C. gattii)” for “albicans)”

| Substance | IC50 against T. rubrum (T. rubrum) | IC50 against M. fulvum (M. fulvum) | IC50 against T. interdigitale (T. interdigitale) | IC50 against C. albicans (C. albicans) | Activity across the range of fungal pathogens [1] | Inhibition of M. fulvum (M. fulvum; summary of Table 3) | IC50 against T. albicans (T. albicans) | Inhibition of C. albicans (T. albicans; summary of Table 3) | IC50 against C. glabrata (C. glabrata) | IC50 against C. tropicalis (C. tropicalis) | IC50 against A. niger (A. niger) | IC50 against A. fumigatus (A. fumigatus) | IC50 against C. neoformans (C. neoformans) | IC50 against C. gattii (C. gattii) | IC50 (E. coli) | Inhibition of growth of E. coli (E. coli) | IC50 (B. subtilis) | Inhibition of growth of B. subtilis (B. subtilis) | IC50 against A. flavus (A. flavus) |
| --- | --- | --- | --- | --- | --- | --- | --- | --- | --- | --- | --- | --- | --- | --- | --- | --- | --- | --- | --- |
| HXL015: Class I plant defensin from Oryza sativa (RHCLSQSHRFKGMCVSSNNCANVCRTESFPDGECKSHGLERKCFCKKVC; HXL015 Oryza sativa) | 10 µg/mL | 12.5 µg/mL | 3.5 µg/mL | 5 µg/mL | intermediate activity | – | – | – | – | – | – | – | – | – | – | – | – | – | – |
| HXL002: Class I plant defensin from Triticum aestivum (RDCLSQSHKFKGACLSSSNCAAVCRTENFPDGECHTHNFARKCFCKRAC; HXL002 Triticum aestivum) | – | 50 µg/mL | – | 35 µg/mL | – | very poor inhibitors | 35 µg/mL | very poor inhibitors | 15 µg/mL | 2 µg/mL | 20 µg/mL | 25 µg/mL | 2.5 µg/mL | 18 µg/mL | > 20 µM | did not inhibit the growth | > 20 µM | did not inhibit the growth | – |
| HXL003: Class I plant defensin from Triticum aestivum (ARDCTSQSHKFVGLCLSDRNCASVCLTEYFTGGKCDHRRCVCTKGC; HXL003 Triticum aestivum) | – | >100 µg/mL | – | >100 µg/mL | – | – | >100 µg/mL | – | >100 µg/mL | 8 µg/mL | >100 µg/mL | >100 µg/mL | 3 µg/mL | 20 µg/mL | > 20 µM | did not inhibit the growth | > 20 µM | did not inhibit the growth | >100 µg/mL |
| HXL001: Class I plant defensin from Zea mays (RHCLSQSHRFKGLCMSSNNCANVCQTENFPGGECKAEGATRKCFCKKIC; HXL001 Zea mays) | >100 µg/mL | >100 µg/mL | – | 35 µg/mL | did not display any activity | – | 35 µg/mL | – | 32 µg/mL | 6 µg/mL | >100 µg/mL | >100 µg/mL | 10 µg/mL | 40 µg/mL | > 20 µM | did not inhibit the growth | > 20 µM | did not inhibit the growth | >100 µg/mL |
